From PMC9894920, “Development of an improved and specific inhibitor of NADPH oxidase 2 to treat traumatic brain injury” (Redox Biology, 2023)
≈ marks a conversion by molar mass, not a printed value.

What was measured:
[1] = Aqueous kinetic solubility in PBS buffer; assay type: physicochemical; settings: aqueous buffer, kinetic from dmso stock, read-out: Solubility
Procedure: The rat liver microsomal stability, parallel artificial membrane permeability assay (PAMPA), and aqueous kinetic solubility assay in phosphate-buffered saline (PBS) buffer were performed as described in the indicated references.

[2] = molecular target: T1, NOX2 (Mus musculus, UniProt Q61093); assay: NOX2 activity in primary mouse neutrophils enriched from bone marrow; assay type: cell-based; settings: SD, n = 8 mice
T1 construct: relative potencies in primary mouse neutrophils enriched from bone marrow; endogenous in cells; host or cells: primary mouse bone-marrow granulocytes
T1 sequence (Q61093 2-570 limits assumed): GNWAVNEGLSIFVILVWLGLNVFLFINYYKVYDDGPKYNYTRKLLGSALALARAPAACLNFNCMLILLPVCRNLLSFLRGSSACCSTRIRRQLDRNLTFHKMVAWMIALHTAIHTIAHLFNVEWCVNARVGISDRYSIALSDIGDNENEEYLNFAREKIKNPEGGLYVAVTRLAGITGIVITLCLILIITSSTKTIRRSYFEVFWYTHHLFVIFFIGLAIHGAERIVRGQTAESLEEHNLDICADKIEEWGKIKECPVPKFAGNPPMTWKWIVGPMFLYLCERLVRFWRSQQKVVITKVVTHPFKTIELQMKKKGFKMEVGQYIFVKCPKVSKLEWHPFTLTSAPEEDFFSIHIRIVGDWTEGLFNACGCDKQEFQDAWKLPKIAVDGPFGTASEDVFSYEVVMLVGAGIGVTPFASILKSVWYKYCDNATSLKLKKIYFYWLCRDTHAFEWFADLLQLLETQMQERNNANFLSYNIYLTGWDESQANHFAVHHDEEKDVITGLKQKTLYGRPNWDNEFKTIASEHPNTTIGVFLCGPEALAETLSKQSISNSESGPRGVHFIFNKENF
T1 sequence (Q61462 2-192 partner limits assumed): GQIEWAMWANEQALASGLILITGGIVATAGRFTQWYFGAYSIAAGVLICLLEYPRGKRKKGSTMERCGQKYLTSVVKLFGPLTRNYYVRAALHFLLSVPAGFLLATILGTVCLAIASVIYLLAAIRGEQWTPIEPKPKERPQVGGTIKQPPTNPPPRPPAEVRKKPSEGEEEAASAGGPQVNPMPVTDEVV
Procedure: Human blood was obtained after informed consent by the Department of Transfusion Medicine (NIH Clinical Center) and provided as de-identified specimens. Human granulocytes were isolated using Percoll density fractionation as described and NOX2 activity was assessed in white polypropylene flat bottom 96 well plates following 15 min of preincubation at 37 °C with compounds or vehicle controls using 50 μM luminol as a chemiluminescence enhancer in an assay volume of 100 μl RPMI1640 with 1.1 × 10^5 cells/well in Varioskan Lux luminometer for 30 cycles of 1 s per well (approximately 1 h).
Mouse granulocytes were isolated from bone marrow essentially as described except bones were not sterilized in ethanol and marrow was not flushed through a 100 μm strainer. Furthermore, RPMI1640 was supplemented with 10% FBS, 2 mM EDTA, and 25 mM HEPES buffer and penicillin/streptomycin was omitted. Polymorphonuclear leukocytes (PMN) concentration and purity (>90% granulocytes) were assessed microscopically using 3% acetic acid and a hemacytometer. NOX2 activity was assessed as described above with human granulocytes.

[3] = molecular target: T2, NOX4 (Homo sapiens, UniProt Q9NPH5); assay: Expi293 whole cell assay, NOX4 overexpression; assay type: cell-based; settings: doses 100x higher than GSK2795039
T2 construct: expressed in transfected cells; host or cells: Expi293 (human embryonic kidney) cells, transient transfection, 48 hours
T2 sequence (Q9NPH5 1-578): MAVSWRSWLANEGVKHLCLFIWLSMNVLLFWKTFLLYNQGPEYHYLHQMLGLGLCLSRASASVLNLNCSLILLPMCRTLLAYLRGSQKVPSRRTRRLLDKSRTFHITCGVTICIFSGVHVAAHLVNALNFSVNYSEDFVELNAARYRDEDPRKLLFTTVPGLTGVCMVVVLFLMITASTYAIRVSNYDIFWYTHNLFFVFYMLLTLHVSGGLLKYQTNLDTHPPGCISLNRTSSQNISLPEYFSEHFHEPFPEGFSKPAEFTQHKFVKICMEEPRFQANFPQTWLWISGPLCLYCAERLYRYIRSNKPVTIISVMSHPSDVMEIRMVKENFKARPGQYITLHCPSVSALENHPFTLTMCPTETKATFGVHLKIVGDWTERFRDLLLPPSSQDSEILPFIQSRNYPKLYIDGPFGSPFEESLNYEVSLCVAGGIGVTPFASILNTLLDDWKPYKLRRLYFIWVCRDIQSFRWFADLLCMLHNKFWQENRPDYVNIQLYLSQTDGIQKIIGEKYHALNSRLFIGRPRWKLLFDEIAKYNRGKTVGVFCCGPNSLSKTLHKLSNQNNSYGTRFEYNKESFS
T2 sequence (P13498 2-195 partner limits assumed): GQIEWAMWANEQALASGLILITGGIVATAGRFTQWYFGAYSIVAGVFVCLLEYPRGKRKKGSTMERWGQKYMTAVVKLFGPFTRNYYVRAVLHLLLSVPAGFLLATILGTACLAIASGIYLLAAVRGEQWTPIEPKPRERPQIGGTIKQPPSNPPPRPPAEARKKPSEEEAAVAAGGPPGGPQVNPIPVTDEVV
Procedure: Given concerns about previous assays for specific NOX family members we here report the first use of the Expi293 Expression System (Thermo Scientific) to overexpress NOX1, 2, 3, 4, and 5 in excess of any endogenous NOX proteins present in these cells. Transfections were performed following the manufacturer's instructions using the plasmids for each NOX as described in Supplemental Table 2 except that the enhancer solution provided with the Expi293 system was not used because it promoted enzyme activation.
After the times indicated in Supplemental Table 2, cells were washed and 50,000 added per well of a white 96-well plate (Greiner) along with 50 μM Luminol and 2.5 U horseradish peroxidase/mL in a volume of 90 μl for NOX1, NOX2, and NOX5. Inhibitors or vehicle controls were added and cells were incubated for 20 min at 37 °C prior to activation with the indicated stimuli. For NOX3 and NOX4 (constitutively active), cells were incubated with inhibitor or vehicle control prior to the addition of luminol and HRP. Chemiluminescence was measured every 2 min for 1 s per well at 37 °C in a Varioscan Multimode reader. AUC data were analyzed using GraphPad Prism using non-linear regression analysis after expressing relative to control alone (maximum ROS production).

## Cn1ccc(S(=O)(=O)Nc2ccnc3c2c(-c2ccc4ccn(C)c4c2)cn3C2CC2)n1 [NCATS-SM7270, N-(1-cyclopropyl-3-(1-methyl-1H-indol-6-yl)-1H-pyrrolo [2,3-b]pyridin-4-yl)-1-methyl-1H-pyrazole-3-sulfonamide]
[1]
  solubility: 19.6 µg/mL (≈ 43.9 µM)
[2]
  IC50: 4.28 ± 1.05 µM
[3]
  activity against NOX4: no detectable activity
